# “Also recorded” adds a separate entry of the source. Where two headings read alike, the source gives them in different places.
# How the values were obtained:
# [1] = test system: HIV envelope gp120/41-induced syncytia formation in CD4+T cell lines (HIVenv 2-8 co-culture); assay: Inhibition of HIVenv 2-8-induced syncytia formation / cell death (HIV-1 co-culture assay); type: cell-based; conditions: for Estimated IC50 (Syncitia Quantification), inhibition of HIV-induced cytopathicity: Table 1
# Experimental: Sourcing of Ah Receptor Ligands: The Ah receptor ligands 2,3,7,8-Tetrachlorodibenzo-p-dioxin, 3,3',4,4',5-Pentachlorobiphenyl, 3,3',4,'4-Tetrachlorobiphenyl, and 2-Monochlorodibenzo-p-dioxin compounds were purchased from Accustandard (Cambridge, Mass.). α-naphthoflavone was purchased from Sigma (St. Louis, Mo.). Stock solutions of each compound were prepared by dissolution in DMSO at a 1000X concentration, i.e. the highest concentration tested was diluted by 1000-fold.
# Bioassay Procedure: The cell lines utilized in the assay protocol include the following: HIVenv 2-2 (non-cytopathic), HIVenv 2-8 (cytopathic), Jurkat CD4+T cell line (clone E6-1), and SupT1. Cell lines were cultured in RPMI medium (Gibco, Grand Island, N.Y.) supplemented with L-glutamine (Sigma, St. Louis, Mo.) and 10% FBS-HI (Intergen). The Jurkat CD4+T cell line was obtained from American Type Culture Collection (Bethesda, Md.). All other cell lines were obtained from the National Institutes of Health. The HIVenv 2-2 or HIVenv 2-8 cells were plated with both CD4+T cell lines (1×10^3 cells per cell line in 16 μL of media.) in a 96-well tissue culture plate containing 50 μL of media with compound to be tested yielding a final volume of approximately 100 μL. The plates were then gently shaken to ensure adequate mixing of the assay components. Cells were then co-cultured at 5% CO2, 37C., and 95% humidity for 24 to 48 hours. The time points were chosen for the convenience, cytopathic changes become evident in the cell cultures used within a 2 to 4 hour period, becoming more and more prominent with time.
# Data Reduction for this ELISA: HIVenv 2-2 co-culture ELISA values are used as the background for HIVenv 2-8 co-culture values. Dose responses are then plotted with dose along the x-axis and the background corrected optical density values on the y-axis.
# Positive and Negative Controls: The use of the HIVenv 2-2 cell line serves as a negative control for induction of cytopathicity.
# Interpretation of the Test: A positive response was defined as a dose-related decrease in syncytia formation in excess of 50% compared to HIVenv 2-8 co-cultures alone. Calculation of median effective doses was estimated by visual observation and by quantification of syncitia in 10X power microscope fields.
# The Materials and Methods used in the testing of the various dibenzofuran compounds were the same as those used in Example 1 above. This includes the use of the same controls, cell lines, and assay procedures.
# Interpretation of the Test: A positive response was defined as a dose-related decrease in syncytia formation in excess of 50% compared to HIVenv 2-8 co-cultures alone. Calculation of median effective doses was estimated by visual observation and by quantification of syncitia in 10X power microscope fields. Another procedure which provides data similar to the Bioassay procedure just described allows for quantification of changes in the co-culture cells through an ELISA method, not as reliant on visual observation. […]
# Ah receptor [2] = target: T1, Ah receptor (Cavia porcellus, UniProt Q6J287); assay: Ah receptor transformation, agonist test (Ah-immunoassay, absence of TCDD); type: biochemical, Guinea pig; conditions: absence of TCDD
# T1 sequence (Q6J287 1-846): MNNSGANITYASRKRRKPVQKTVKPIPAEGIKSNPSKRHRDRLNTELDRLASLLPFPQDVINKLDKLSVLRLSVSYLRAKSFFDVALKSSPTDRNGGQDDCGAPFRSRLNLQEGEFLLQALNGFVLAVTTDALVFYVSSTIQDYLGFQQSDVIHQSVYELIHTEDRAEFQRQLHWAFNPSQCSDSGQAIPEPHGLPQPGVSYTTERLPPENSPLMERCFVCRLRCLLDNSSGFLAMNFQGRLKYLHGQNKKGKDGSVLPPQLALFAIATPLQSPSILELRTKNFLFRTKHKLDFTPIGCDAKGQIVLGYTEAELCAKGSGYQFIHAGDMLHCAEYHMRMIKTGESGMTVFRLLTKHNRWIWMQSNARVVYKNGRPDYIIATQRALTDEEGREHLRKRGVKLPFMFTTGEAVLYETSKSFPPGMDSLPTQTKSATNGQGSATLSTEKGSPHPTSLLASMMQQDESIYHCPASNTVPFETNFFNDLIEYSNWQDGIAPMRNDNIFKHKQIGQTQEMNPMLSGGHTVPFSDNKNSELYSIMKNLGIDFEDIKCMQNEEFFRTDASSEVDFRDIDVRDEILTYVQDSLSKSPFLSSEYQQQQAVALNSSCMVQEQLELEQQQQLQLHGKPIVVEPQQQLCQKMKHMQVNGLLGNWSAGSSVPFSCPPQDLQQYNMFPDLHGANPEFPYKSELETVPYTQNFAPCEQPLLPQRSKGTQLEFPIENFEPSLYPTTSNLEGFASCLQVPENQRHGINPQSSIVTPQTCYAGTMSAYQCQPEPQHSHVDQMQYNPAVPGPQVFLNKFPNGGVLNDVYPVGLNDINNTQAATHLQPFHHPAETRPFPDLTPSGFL
# Experimental: Cytosol was prepared as described above.
# Diluent for TCDD dose response, diluent for extracts (detection of agonists), and negative control: The cytosol is treated with 1 μL DMSO per 1 mL cytosol (-).
# 1 nM TCDD treated, positive control. […] DMSO diluent for detection of agonists: the cytosol is treated with μL DMSO per 1 mL cytosol. (1 nm final concentration of TCDD).
# Ah receptor [3] = target: T1, Ah receptor; assay: Inhibition of Ah receptor transformation, antagonist test (Ah-immunoassay, 0.5 nM TCDD); conditions: for Test as antagonist, Milli O.D at 405: 0.5 nM TCDD; for binding or interaction with the Ah receptor (words): with and without 0.5 nM TCDD
# Experimental: Cytosol was prepared as described in methods and treated with TCDD, DMSO or TCM extract to make 1) 0.5 nM TCDD, 2) 0.1% DMSO, or 3) 500 μg/mL TCM extract, respectively. The treated cytosol was serially diluted in a neutravidin-coated ELISA plate (Pierce, Rockford, Ill.). […] To treat for Ah receptor agonist activity, extracts were diluted in 0.5 nM TCDD treated cytosol to 250, 125, and 62.5 μg/mL of TCM extracts.
# Ten mL aliquots of cytosol were thawed and pooled, generally 20 mL per ELISA plate. For each 20 mL of cytosol, 10 μL of thawed DRE stock and 1 mL HEDG in 4M NaCl were added.
# 0.5 nM TCDD Diluent for extracts (detection of antagonists): The cytosol is treated with 1 μl of 1 μM TCDD per 2 mL cytosol (0.5 nm).
# 500 μg/mL extracts (detection of antagonists): 1 μL of test extract (500 mg/mL in DMSO) in 1 mL 0.5 nM TCDD-treated cytosol (500 μg/mL final concentration of extract in cytosol).
# Serial dilution's of the extracts and/or TCDD treated cytosol into DMSO-treated cytosol are done as required by the experiment and are described in the examples.
# The ELISA plate containing the treated cytosol is incubated with gentle rocking for 2 hours at 30° C. to allow the transformation of Ah receptor, binding of Ah receptor with ARNT, and binding of the Ah receptor/ARNT complex to the biotinylated DRE, and binding of the biotinylated DRE to the neutravidin bound to the ELISA plate.
# After 2 hours the plate is washed 3 times with 400 μL TBS plus 0.02% Tween 20 per well per wash and 200 μL of the working dilution of anti-ARNT added to all wells. The plate is again incubated with gentle rocking at 30° C. for 1 hour. After 1 hour the plate is washed as before and a working dilution (1:4000) of anti-rabbit/alkaline phosphatase conjugate is added to all wells. The plate is incubated for a further 1 hour at 30° C. with gentle rocking and then washed as before. PNPP stock is added to each well (200 μL) and the plate is incubated for 1 hour at 30° C., at which time it is read at 405 nm in an ELISA plate reader and the milli O.D.'s of the wells are recorded.
# TCM extracts were tested for their ability to inhibit the transformation of the Ah receptor.
# [4] = test system: HIV; viruses; tumors; liver; conditions: cited from earlier work
compound,measurement,setting,value
"CC(C)c1cc(Cl)cc2c1oc1cc(Cl)cc(Cl)c12 [6-isopropyl,1,3,8-trichlorodibenzofuran]",inhibition of syncytia formation / cytopathicity,[1],slightly less antagonistic activity
same,"Estimated IC50 (Syncitia Quantification), inhibition of HIV-induced cytopathicity",[1],100 nM
"Clc1cc2oc3cc(Cl)c(Cl)cc3c2cc1Cl [2,3,7,8-TCDF]","Estimated IC50 (Syncitia Quantification), inhibition of HIV-induced cytopathicity",[1],80 nM
"CCCc1cc(Cl)cc2c1oc1cc(Cl)cc(Cl)c12 [6-propyl,1,3,8-trichlorodibenzofuran]","Estimated IC50 (Syncitia Quantification), inhibition of HIV-induced cytopathicity",[1],500 nM
"Clc1ccc(-c2cc(Cl)c(Cl)c(Cl)c2)cc1Cl [3,3',4,4',5-PCB, 3,3',4,4',5-pentachlorobiphenyl]",inhibition of syncytia formation / cytopathicity,[1],correspondingly weaker activity
same,"Estimated IC50 (Syncitia Quantification), inhibition of HIV-induced cytopathicity",[1],100 nM
"O=[N+]([O-])c1cc(Cl)cc2c1oc1cc(Cl)cc(Cl)c12 [6-nitro 1,3,8-trichlorodibenzofuran]",inhibition of syncytia formation / cytopathicity,[1],slightly less antagonistic activity
same,"Estimated IC50 (Syncitia Quantification), inhibition of HIV-induced cytopathicity",[1],500 nM
"Clc1ccc(-c2ccc(Cl)c(Cl)c2)cc1Cl [3,3',4,4'-TCB, 3,3',4,4'-tetrachlorobiphenyl]",inhibition of syncytia formation / cytopathicity,[1],correspondingly weaker activity
same,"Estimated IC50 (Syncitia Quantification), inhibition of HIV-induced cytopathicity",[1],35 nM
"Clc1cc2c(cc1Cl)Oc1c(Cl)c(Cl)c(Cl)c(Cl)c1O2 [1,2,3,4,7,8-HCDD]","Estimated IC50 (Syncitia Quantification), inhibition of HIV-induced cytopathicity",[1],No Inhibition Observed
"Clc1ccc2c(c1)Oc1ccccc1O2 [Extract 2-MCDD, 2-Monochlorodibenzo-p-dioxin]",inhibition of syncytia formation / cytopathicity,[1],incapable of blocking the cytopathic effect
same,"Estimated IC50 (Syncitia Quantification), inhibition of HIV-induced cytopathicity",[1],No Inhibition Observed
"CCc1cc(Cl)cc2c1oc1cc(Cl)cc(Cl)c12 [6-ethyl,1,3,8-trichlorodibenzofuran]","Estimated IC50 (Syncitia Quantification), inhibition of HIV-induced cytopathicity",[1],1000 nM
"Clc1cc(Cl)c2c(c1)oc1c(C3CCCCC3)cc(Cl)cc12 [6-cyclohexyl,1,3,8-trichlorodibenzofuran]","Estimated IC50 (Syncitia Quantification), inhibition of HIV-induced cytopathicity",[1],500 nM
"CC(C)(C)c1cc(Cl)cc2c1oc1cc(Cl)cc(Cl)c12 [6-t-butyl,1,3,8-trichlorodibenzofuran]","Estimated IC50 (Syncitia Quantification), inhibition of HIV-induced cytopathicity",[1],1500 nM
CC1(C)CC[C@]2(C(=O)O)CC[C@]3(C)C(=CC[C@@H]4[C@@]5(C)CC[C@H](O)C(C)(C)[C@@H]5CC[C@]43C)[C@@H]2C1 [Oleanolic Acid],"Test as agonist, Milli O.D at 405","Ah receptor [2]; Table 11, 0.313 μg/mL",48 Milli O.D
same,"Test as agonist, Milli O.D at 405","Ah receptor [2]; Table 11, 0.625 μg/mL",19.5 Milli O.D
same,"Test as agonist, Milli O.D at 405","Ah receptor [2]; Table 11, 1.25 μg/mL",49 Milli O.D
same,"Test as agonist, Milli O.D at 405","Ah receptor [2]; Table 11, 2.5 μg/mL",49.5 Milli O.D
same,"Test as agonist, Milli O.D at 405","Ah receptor [2]; Table 11, 5 μg/mL",49.5 Milli O.D
same,"Test as agonist, Milli O.D at 405","Ah receptor [2]; Table 11, 10 μg/mL",50 Milli O.D
same,"Test as antagonist, Milli O.D at 405","Ah receptor [3]; Table 11, 0.313 μg/mL",1493 Milli O.D
same,"Test as antagonist, Milli O.D at 405","Ah receptor [3]; Table 11, 0.625 μg/mL",1444 Milli O.D
same,"Test as antagonist, Milli O.D at 405","Ah receptor [3]; Table 11, 1.25 μg/mL",1438 Milli O.D
same,"Test as antagonist, Milli O.D at 405","Ah receptor [3]; Table 11, 2.5 μg/mL",1462 Milli O.D
same,"Test as antagonist, Milli O.D at 405","Ah receptor [3]; Table 11, 5 μg/mL",1423 Milli O.D
same,"Test as antagonist, Milli O.D at 405","Ah receptor [3]; Table 11, 10 μg/mL",1143 Milli O.D
same,binding or interaction with the Ah receptor (words),Ah receptor [3],non-Ah receptor binding
"C=C1CC[C@@H]2[C@](C)(CO)[C@H](O)CC[C@@]2(C)[C@@H]1C/C=C1/C(=O)OC[C@H]1O [Andrographolide, andrographolide]","Test as agonist, Milli O.D at 405","Ah receptor [2]; Table 11, 0.313 μg/mL",49.5 Milli O.D
same,"Test as agonist, Milli O.D at 405","Ah receptor [2]; Table 11, 0.625 μg/mL",43 Milli O.D
same,"Test as agonist, Milli O.D at 405","Ah receptor [2]; Table 11, 1.25 μg/mL",59.5 Milli O.D
same,"Test as agonist, Milli O.D at 405","Ah receptor [2]; Table 11, 2.5 μg/mL",54.5 Milli O.D
same,"Test as agonist, Milli O.D at 405","Ah receptor [2]; Table 11, 5 μg/mL",55 Milli O.D
same,"Test as agonist, Milli O.D at 405","Ah receptor [2]; Table 11, 10 μg/mL",47 Milli O.D
same,pharmacological activity (words),[4],anti-tumor activity
same,pharmacological activity (words),[4]; listed as andrographolide,"anti-HIV effects; also recorded: anti-viral, anti-neoplastic and hepatoprotective properties"
same,"Test as antagonist, Milli O.D at 405","Ah receptor [3]; Table 11, 0.313 μg/mL",1457 Milli O.D
same,"Test as antagonist, Milli O.D at 405","Ah receptor [3]; Table 11, 0.625 μg/mL",1402 Milli O.D
same,"Test as antagonist, Milli O.D at 405","Ah receptor [3]; Table 11, 1.25 μg/mL",1437 Milli O.D
same,"Test as antagonist, Milli O.D at 405","Ah receptor [3]; Table 11, 2.5 μg/mL",1416 Milli O.D
same,"Test as antagonist, Milli O.D at 405","Ah receptor [3]; Table 11, 5 μg/mL",1421 Milli O.D
same,"Test as antagonist, Milli O.D at 405","Ah receptor [3]; Table 11, 10 μg/mL",1164 Milli O.D
same,binding or interaction with the Ah receptor (words),Ah receptor [3],does not interact or inhibit the Ah receptor
same,binding or interaction with the Ah receptor (words),Ah receptor [3]; listed as andrographolide,does not bind the Ah receptor; also recorded: non-Ah receptor binding
"Cc1cc(Cl)cc2c1oc1cc(Cl)cc(Br)c12 [1-bromo,6-methyl,3,8-dichlorodibenzofuran]",inhibition of syncytia formation / cytopathicity,[1],most effective compound and strongest Ah receptor antagonist
same,"Estimated IC50 (Syncitia Quantification), inhibition of HIV-induced cytopathicity",[1],100 nM
"Cc1cc(Cl)cc2c1oc1cc(Cl)cc(Cl)c12 [6-methyl,1,3,8-trichlorodibenzofuran]","Estimated IC50 (Syncitia Quantification), inhibition of HIV-induced cytopathicity",[1],200 nM
"CCCCc1cc(Cl)cc2c1oc1cc(Cl)cc(Cl)c12 [6-butyl,1,3,8-trichlorodibenzofuran]","Estimated IC50 (Syncitia Quantification), inhibition of HIV-induced cytopathicity",[1],1500 nM

# — patent US5833994A, “Use of the AH receptor and AH receptor ligands to treat or prevent cytopathicity of viral infection” (Paracelsian, Inc., priority 1997, dated 1998)
